Several values for one entry are separate records, joined by “and”; a condition that tells them apart may be missing. Identical values can stand only once. Toxic doses and inconclusive results are not listed. Rule as the data show it: active = T/C of 150% or more; inactive = T/C below 125%.
Tested on: L1210 leukemia ip in BDF1 mice, survival T/C
Assay: NCI In Vivo Anticancer Drug Screen. Data for tumor model L1210 Leukemia (intraperitoneal) in B6D2F1 (BDF1) mice
Settings: endpoint: mean survival time, higher = longer survival
Procedure, shortened: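 Mice bearing the transplanted tumor received compound or vehicle. Survival of the treated group was divided by that of the vehicle-treated control group to give the ratio.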

[1] = dose: 50.0 mg/kg/injection, schedule: Q01DX009 (ip), vehicle: saline with Tween-80
[2] = dose: 100.0 mg/kg/injection, schedule: Q01DX009 (ip), vehicle: saline with Tween-80
[3] = dose: 200.0 mg/kg/injection, schedule: Q01DX009 (ip), vehicle: saline with Tween-80
[4] = dose: 400.0 mg/kg/injection, schedule: Q01DX009 (ip), vehicle: saline with Tween-80
[5] = dose: 100.0 mg/kg/injection, schedule: Q01DX001 (ip), vehicle: saline with Tween-80
[6] = dose: 200.0 mg/kg/injection, schedule: Q01DX001 (ip), vehicle: saline with Tween-80
[7] = dose: 400.0 mg/kg/injection, schedule: Q01DX001 (ip), vehicle: saline with Tween-80
[8] = dose: 100.0 mg/kg/injection, schedule: Q04DX003 (ip), vehicle: saline with Tween-80

Measured: T/C

COc1ccc(/C=C2\N=C(c3ccccc3)OC2=O)cc1
inactive: dose: 100.0 mg/kg/injection, schedule: Q01DX001 (ip), vehicle: saline 94 % of control | dose: 100.0 mg/kg/injection, schedule: Q04DX003 (ip), vehicle: saline 98 % of control | dose: 200.0 mg/kg/injection, schedule: Q01DX001 (ip), vehicle: saline 95 % of control | dose: 200.0 mg/kg/injection, schedule: Q04DX003 (ip), vehicle: saline 93 % of control | dose: 400.0 mg/kg/injection, schedule: Q01DX001 (ip), vehicle: saline 94 % of control | dose: 400.0 mg/kg/injection, schedule: Q04DX003 (ip), vehicle: saline 93 % of control

COC(=O)c1ccccc1NC(=O)C(Br)C(Br)C(=O)O (stereo not given)
inactive: [1] 101 % of control | [2] 96 % of control | [3] 117 % of control

CCOC(=O)Nc1cccc(O)c1
inactive: [2] 91 % of control | [3] 103 % of control | [4] 92 % of control

Nc1cccc(CNc2ccc(C(=O)O)cc2)c1
inactive: [5] 113 % of control | [6] 103 % of control | [7] 98 % of control

O=C(O)CCCCSCCSCCCCC(=O)O
inactive: dose: 100.0 mg/kg/injection, schedule: Q01DX009 (ip), vehicle: Klucel (hydroxypropylcellulose) (HPC) 101 % of control | dose: 200.0 mg/kg/injection, schedule: Q01DX009 (ip), vehicle: Klucel (hydroxypropylcellulose) (HPC) 94 % of control | dose: 400.0 mg/kg/injection, schedule: Q01DX009 (ip), vehicle: Klucel (hydroxypropylcellulose) (HPC) 86 % of control

COc1ccc(C(=O)CCC(=O)O)c2ccccc12
inactive: dose: 100.0 mg/kg/injection, schedule: Q04DX003 (ip), vehicle: Klucel (hydroxypropylcellulose) (HPC) 92 % of control | dose: 200.0 mg/kg/injection, schedule: Q04DX003 (ip), vehicle: Klucel (hydroxypropylcellulose) (HPC) 93 % of control | dose: 400.0 mg/kg/injection, schedule: Q04DX003 (ip), vehicle: Klucel (hydroxypropylcellulose) (HPC) 88 % of control

O=C1NCC(Nc2ccc(Br)cc2Cl)C(=O)N1 (stereo not given)
inactive: dose: 100.0 mg/kg/injection, schedule: Q01DX Z (ip), vehicle: methylcellulose (MC) 96 % of control | dose: 200.0 mg/kg/injection, schedule: Q01DX Z (ip), vehicle: methylcellulose (MC) 90 % of control

O=c1[nH]c(=O)n(CC(O)c2ccc(Cl)s2)cc1F (stereo not given)
inactive: [2] 100 % of control | [8] 100 % of control | [3] 101 % of control | dose: 200.0 mg/kg/injection, schedule: Q04DX003 (ip), vehicle: saline with Tween-80 96 % of control | [4] 95 % of control | dose: 400.0 mg/kg/injection, schedule: Q04DX003 (ip), vehicle: saline with Tween-80 97 % of control

CCN(CC)CCNCc1cc(Cl)c2cccnc2c1O
inactive: dose: 6.25 mg/kg/injection, schedule: Q04DX002 (ip), vehicle: saline 90 % of control | dose: 12.5 mg/kg/injection, schedule: Q04DX002 (ip), vehicle: saline 97 % of control | dose: 25.0 mg/kg/injection, schedule: Q04DX002 (ip), vehicle: saline 94 % of control

CN(C)c1nnc(-c2ccc(Cl)cc2)nn1
inactive: [5] 96 % of control | [6] 92 % of control | [7] 88 % of control

FC(F)(F)c1ccc(-c2ccc(OCCN3CCCC3)cc2)cc1
inactive: dose: 4.68 mg/kg/injection, schedule: Q01DX009 (ip), vehicle: saline 97 % of control | dose: 9.37 mg/kg/injection, schedule: Q01DX009 (ip), vehicle: saline 92 % of control | dose: 18.75 mg/kg/injection, schedule: Q01DX009 (ip), vehicle: saline 94 % of control and 89 % of control | dose: 37.5 mg/kg/injection, schedule: Q01DX009 (ip), vehicle: saline 90 % of control | dose: 37.5 mg/kg/injection, schedule: Q04DX003 (ip), vehicle: saline 93 % of control | dose: 75.0 mg/kg/injection, schedule: Q04DX003 (ip), vehicle: saline 102 % of control | dose: 150.0 mg/kg/injection, schedule: Q04DX003 (ip), vehicle: saline 87 % of control

Nc1nc(N)c(CCCOc2ccccc2)c(N)n1
inactive: dose: 100.0 mg/kg/injection, schedule: Q04DX002 (ip), vehicle: saline 105 % of control | dose: 200.0 mg/kg/injection, schedule: Q04DX002 (ip), vehicle: saline 105 % of control

COc1nc(C)c(C)[n+]([O-])n1
inactive: dose: 12.5 mg/kg/injection, schedule: Q01DX001 (ip), vehicle: saline with Tween-80 94 % of control | dose: 12.5 mg/kg/injection, schedule: Q01DX009 (ip), vehicle: saline with Tween-80 96 % of control | dose: 12.5 mg/kg/injection, schedule: Q04DX003 (ip), vehicle: saline with Tween-80 97 % of control | dose: 25.0 mg/kg/injection, schedule: Q01DX001 (ip), vehicle: saline with Tween-80 100 % of control | dose: 25.0 mg/kg/injection, schedule: Q01DX009 (ip), vehicle: saline with Tween-80 108 % of control | dose: 25.0 mg/kg/injection, schedule: Q04DX003 (ip), vehicle: saline with Tween-80 110 % of control | dose: 50.0 mg/kg/injection, schedule: Q01DX001 (ip), vehicle: saline with Tween-80 107 % of control | [1] 96 % of control | dose: 50.0 mg/kg/injection, schedule: Q04DX003 (ip), vehicle: saline with Tween-80 94 % of control

Cc1cc(N(CCCl)CCCl)ccc1C=Nc1cc(Br)cc(Br)c1
inactive: dose: 100.0 mg/kg/injection, schedule: Q01DX001 (ip), vehicle: carboxymethylcellulose (CMC) 101 % of control | dose: 200.0 mg/kg/injection, schedule: Q01DX001 (ip), vehicle: carboxymethylcellulose (CMC) 110 % of control | dose: 400.0 mg/kg/injection, schedule: Q01DX001 (ip), vehicle: carboxymethylcellulose (CMC) 108 % of control

O=C(NCCCCCCNC(=O)NCc1ccc(Cl)c(Cl)c1)NCc1ccc(Cl)c(Cl)c1
inactive: dose: 100.0 mg/kg/injection, schedule: Q01DX009 (ip), vehicle: other 97 % of control | dose: 200.0 mg/kg/injection, schedule: Q01DX009 (ip), vehicle: other 86 % of control | dose: 400.0 mg/kg/injection, schedule: Q01DX009 (ip), vehicle: other 95 % of control

CCCCCCCCC[n+]1cccc(C(N)=O)c1
inactive: [8] 106 % of control

From PubChem BioAssay AID248 (DTP/NCI, 2004)
